Converted amounts (≈) assume the structure as drawn. Where two headings read alike, the source gives them in different places.
How the values were obtained:
[1] = system: Staphylococcus aureus X1.1; test: MIC, standard agar-dilution assay, S. aureus X1.1; type: cell-based
Experimental: (§1) The MIC's in Table II were determined by standard agar-dilution assays. The MIC's in Table III were obtained using conventional broth-dilution microtiter tests.

[2] = system: Staphylococcus aureus V41; test: MIC, standard agar-dilution assay, S. aureus V41; type: cell-based; conditions: Staphylococcus aureus, V41
Experimental: as §1

[3] = system: Staphylococcus aureus X400; test: MIC, standard agar-dilution assay, S. aureus X400; type: cell-based
Experimental: as §1

[4] = system: Staphylococcus aureus S13E; test: MIC, standard agar-dilution assay, S. aureus S13E; type: cell-based
Experimental: as §1

[5] = system: Staphylococcus epidermidis EPI1; test: MIC, standard agar-dilution assay, S. epidermidis EPI1; type: cell-based
Experimental: as §1

[6] = system: Staphylococcus epidermidis 222; test: MIC, standard agar-dilution assay, S. epidermidis 222; type: cell-based
Experimental: as §1

[7] = system: Streptococcus pyogenes C203; test: MIC, standard agar-dilution assay, S. pyogenes C203; type: cell-based; conditions: Streptococcus pyogenes, C203
Experimental: as §1

[8] = system: Streptococcus pneumoniae Park I; test: MIC, standard agar-dilution assay, S. pneumoniae Park I; type: cell-based; conditions: Streptococcus pneumoniae
Experimental: as §1

[9] = system: Streptococcus Group D X66; test: MIC, standard agar-dilution assay, Streptococcus Group D X66; type: cell-based
Experimental: as §1

[10] = system: Streptococcus Group D 2041; test: MIC, standard agar-dilution assay, Streptococcus Group D 2041; type: cell-based; conditions: GROUPD2041
Experimental: as §1

[11] = system: Haemophilus influenzae C.L.; test: MIC, standard agar-dilution assay, H. influenzae C.L.; type: cell-based
Experimental: as §1

[12] = system: Haemophilus influenzae 76; test: MIC, standard agar-dilution assay, H. influenzae 76; type: cell-based
Experimental: as §1

Escherichia coli EC14 = test: MIC, standard agar-dilution assay, E. coli EC14; type: cell-based
Experimental: as §1

[13] = system: Klebsiella pneumoniae X68; test: MIC, standard agar-dilution assay, K. pneumoniae X68; type: cell-based
Experimental: as §1

[14] = system: Pseudomonas aeruginosa X239; test: MIC, standard agar-dilution assay, P. aeruginosa X239; type: cell-based
Experimental: as §1

Staphylococcus aureus = test: MIC, broth-dilution microtiter test, S. aureus; type: cell-based
Experimental: as §1

Streptococcus sp. 19F = test: MIC, broth-dilution microtiter test, Streptococcus sp. 19F; type: cell-based; conditions: Streptococcus, SP.19F
Experimental: as §1

[15] = system: Pasteurella multocida 17E; test: MIC, broth-dilution microtiter test, P. multocida 17E; type: cell-based; conditions: Pasteurella multocida, 17E
Experimental: as §1

[16] = system: Pasteurella multocida 60A; test: MIC, broth-dilution microtiter test, P. multocida 60A; type: cell-based
Experimental: as §1

[17] = system: Pasteurella multocida 40G; test: MIC, broth-dilution microtiter test, P. multocida 40G; type: cell-based
Experimental: as §1

[18] = system: Pasteurella multocida 22A; test: MIC, broth-dilution microtiter test, P. multocida 22A; type: cell-based
Experimental: as §1

[19] = system: Pasteurella multocida 68C; test: MIC, broth-dilution microtiter test, P. multocida 68C; type: cell-based
Experimental: as §1

[20] = system: Pasteurella hemolytica 23C; test: MIC, broth-dilution microtiter test, P. hemolytica 23C; type: cell-based
Experimental: as §1

[21] = system: Pasteurella hemolytica 41D; test: MIC, broth-dilution microtiter test, P. hemolytica 41D; type: cell-based
Experimental: as §1

[22] = system: Pasteurella hemolytica 22C; test: MIC, broth-dilution microtiter test, P. hemolytica 22C; type: cell-based
Experimental: as §1

[23] = system: Bordetella bronchiseptica; test: MIC, broth-dilution microtiter test, B. bronchiseptica; type: cell-based
Experimental: as §1

[24] = system: Mycoplasma gallisepticum 29C; test: MIC, broth-dilution microtiter test, M. gallisepticum 29C; type: cell-based; conditions: Mycoplasmoides gallisepticum
Experimental: as §1

[25] = system: Mycoplasma gallisepticum 36H; test: MIC, broth-dilution microtiter test, M. gallisepticum 36H; type: cell-based; conditions: Mycoplasmoides gallisepticum
Experimental: as §1

Mycoplasma synoviae 40A = test: MIC, broth-dilution microtiter test, M. synoviae 40A; type: cell-based; conditions: Mycoplasmopsis synoviae, 40A
Experimental: as §1

Mycoplasma hyorhinis 29E = test: MIC, broth-dilution microtiter test, M. hyorhinis 29E; type: cell-based; conditions: Mycoplasma, 29E
Experimental: as §1

[26] = system: Mycoplasma hyopneumoniae S5972; test: MIC, broth-dilution microtiter test, M. hyopneumoniae S5972; type: cell-based; conditions: Mesomycoplasma hyopneumoniae, S5972
Experimental: as §1

[27] = system: Mycoplasma gallisepticum 15E; test: MIC, broth-dilution microtiter test, M. gallisepticum 15E; type: cell-based; conditions: Mycoplasmoides gallisepticum
Experimental: as §1

[28] = system: Streptococcus pyogenes C203; test: Protection of mice experimentally infected with Streptococcus pyogenes C203; type: in vivo; conditions: Streptococcus pyogenes, doses given 1 and 4 hours postinfection, read-out: ED50
Experimental: The formula 1 compounds have shown in vivo antimicrobial activity against experimentally-induced infections in laboratory animals. When two doses of test compound were administered to mice experimentally infected with Streptococcus pyogenes C203, the activity observed was measured as an ED50 value [effective dose in mg/kg to protect 50% of the test animals: see Warren Wick, et al., J. Bacteriol. 81, 233-235 (1961)].
^a mg/kg × 2; doses given 1 and 4 hours postinfection

[29] = broth-dilution microtiter, read-out: MIC

Compound | MIC [1] [µg/mL] | MIC [2] [µg/mL] | MIC [3] [µg/mL] | MIC [4] [µg/mL] | MIC [5] [µg/mL] | MIC [7] [µg/mL] | MIC [8] [µg/mL] | MIC [9] [µg/mL] | MIC [10] [µg/mL] | MIC [11] [µg/mL] | MIC [12] [µg/mL] | MIC (Escherichia coli EC14) [µg/mL] | MIC [13] [µg/mL] | MIC [14] [µg/mL] | MIC (Staphylococcus aureus) [µg/mL] | MIC [15] [µg/mL] | MIC [16] [µg/mL] | MIC [17] [µg/mL] | MIC [18] [µg/mL] | MIC [19] [µg/mL] | also measured
CCC1OC(=O)CC(O)C(C)C(OC2OC(C)C(OC(C)=O)C(N(C)C)C2OC(C)=O)C(CCOc2ccccc2)CC(C)C(=O)C=CC(C)=CC1COC1OC(C)CC(OC)C1OC (centres unmarked) [Compound 10, 2',4'-Di-O-acetyl-4"-deoxy-20-DH-20-O-phenyl-desmycosin] | 0.25 (≈ 0.272 µM) | 0.5 (≈ 0.545 µM) | 0.5 (≈ 0.545 µM) | 0.5 (≈ 0.545 µM) | 0.25 (≈ 0.272 µM) | 0.5 (≈ 0.545 µM) | 0.5 (≈ 0.545 µM) | 2 (≈ 2.18 µM) | 4 (≈ 4.36 µM) | 64 (≈ 69.7 µM) | 64 (≈ 69.7 µM) | > 128 | > 128 | > 128 | 0.78 (≈ 0.85 µM) | 50 (≈ 54.5 µM) | > 50 | > 50 | > 50 | 50 (≈ 54.5 µM) | MIC [6]: 0.25 µg/mL (≈ 0.272 µM); MIC (Streptococcus sp. 19F; [29]): 6.25 µg/mL (≈ 6.81 µM); MIC [20]: 50 µg/mL (≈ 54.5 µM); MIC [21]: 50 µg/mL (≈ 54.5 µM); MIC [22]: > 50 µg/mL; MIC [23]: > 50 µg/mL; MIC [24, 29]: < 0.048 µg/mL; MIC [25, 29]: 25 µg/mL (≈ 27.2 µM); MIC (Mycoplasma synoviae 40A): 3.12 µg/mL (≈ 3.4 µM); MIC (Mycoplasma hyorhinis 29E; [29]): 25 µg/mL (≈ 27.2 µM); MIC [26, 29]: 6.25 µg/mL (≈ 6.81 µM)
CCC1OC(=O)CC(O)C(C)C(OC2OC(C)C(O)C(N(C)C)C2O)C(CCOc2ccccc2)CC(C)C(=O)C=CC(C)=CC1COC1OC(C)CC(OC)C1OC (centres unmarked) [Compound 11, 4"-Deoxy-20-DH-20-O-phenyl-desmycosin] | 0.25 (≈ 0.3 µM) | 0.25 (≈ 0.3 µM) | 0.25 (≈ 0.3 µM) | 0.25 (≈ 0.3 µM) | 0.25 (≈ 0.3 µM) | 0.25 (≈ 0.3 µM) | 0.25 (≈ 0.3 µM) | 2 (≈ 2.4 µM) | 4 (≈ 4.8 µM) | 32 (≈ 38.4 µM) | 32 (≈ 38.4 µM) | > 128 | > 128 | > 128 | 0.78 (≈ 0.935 µM) | 25 (≈ 30 µM) | 25 (≈ 30 µM) | 25 (≈ 30 µM) | 25 (≈ 30 µM) | 12.5 (≈ 15 µM) | MIC ([6]; agar-dilution, read-out: MIC): 0.125 µg/mL (≈ 0.15 µM); MIC (Streptococcus sp. 19F): 12.5 µg/mL (≈ 15 µM); MIC [20]: 25 µg/mL (≈ 30 µM); MIC [21]: 25 µg/mL (≈ 30 µM); MIC [22]: 25 µg/mL (≈ 30 µM); MIC [23]: > 50 µg/mL; MIC [24]: 0.39 µg/mL (≈ 0.468 µM); MIC [27]: 12.5 µg/mL (≈ 15 µM); MIC [25]: 25 µg/mL (≈ 30 µM); MIC (Mycoplasma synoviae 40A): 1.56 µg/mL (≈ 1.87 µM); MIC (Mycoplasma hyorhinis 29E): 25 µg/mL (≈ 30 µM); MIC [26]: > 25 µg/mL; ED50 ([28]; C203, oral): 34 mg/kg; ED50 ([28]; C203, sc, subcutaneous): 10 mg/kg

From patent US4920103A, “Modifications of mycinose and 3-O-demethylmycinose in tylosin-type macrolides” (Eli Lilly and Company, priority 1986, dated 1990)
